The target in test [1] is T1, Androgen receptor (Homo sapiens) (UniProt P10275).
T1 sequence (whole entry): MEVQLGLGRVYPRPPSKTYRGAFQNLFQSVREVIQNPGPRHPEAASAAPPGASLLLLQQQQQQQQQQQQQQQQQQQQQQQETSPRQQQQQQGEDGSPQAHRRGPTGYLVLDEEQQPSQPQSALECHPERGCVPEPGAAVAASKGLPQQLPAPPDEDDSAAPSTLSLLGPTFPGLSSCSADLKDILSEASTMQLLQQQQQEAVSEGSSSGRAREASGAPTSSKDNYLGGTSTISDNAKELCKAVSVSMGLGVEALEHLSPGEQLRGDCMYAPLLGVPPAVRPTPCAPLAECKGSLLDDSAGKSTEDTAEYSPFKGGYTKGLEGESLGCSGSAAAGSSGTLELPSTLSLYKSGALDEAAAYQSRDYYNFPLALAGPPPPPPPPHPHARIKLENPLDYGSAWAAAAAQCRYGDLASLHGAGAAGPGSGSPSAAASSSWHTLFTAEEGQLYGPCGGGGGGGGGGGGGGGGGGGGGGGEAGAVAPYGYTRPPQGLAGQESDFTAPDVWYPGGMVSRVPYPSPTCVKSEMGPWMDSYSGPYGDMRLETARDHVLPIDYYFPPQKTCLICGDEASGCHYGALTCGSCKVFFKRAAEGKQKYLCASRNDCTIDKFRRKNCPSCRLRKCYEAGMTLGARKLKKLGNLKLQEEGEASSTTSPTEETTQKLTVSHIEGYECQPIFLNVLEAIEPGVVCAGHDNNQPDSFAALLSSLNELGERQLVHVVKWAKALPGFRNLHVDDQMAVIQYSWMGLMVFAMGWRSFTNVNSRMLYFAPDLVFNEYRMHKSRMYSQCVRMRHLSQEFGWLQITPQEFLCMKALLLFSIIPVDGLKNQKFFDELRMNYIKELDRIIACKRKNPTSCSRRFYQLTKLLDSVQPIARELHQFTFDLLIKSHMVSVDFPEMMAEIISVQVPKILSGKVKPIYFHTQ
Briefly: Inhibition of R1881 induced-AR transcriptional activity in AR-positive human 22Rv1 cells harboring ARE14 construct assessed as luciferase activity at 10 uM after 24 hrs by luciferase assay relative to control. Also noted: scale not given: the % may be the effect or the level left.

The subject of test [2] is CWR22R. Kind of test: Inhibition of colony formation in AR-positive human 22Rv1 cells harboring ARE14 construct at 1.25 to 20 uM incubated for 10 days by crystal violet staining. The format is functional, cell-based.
Test [3] has as its system PC-3. Kind of test: Antiproliferative activity against AR-negative human PC3 cells assessed as growth inhibition measured after 72 hrs by resazurin dye based fluorescence assay. Conditions: PC-3, 72 h. The format is functional. (In general: Resazurin is reduced to fluorescent resorufin, in cell work by metabolically active cells.)
Test [4] relates to PC-3. Briefly: Antiproliferative activity against AR-negative human PC3 cells assessed as cell viability at 40 uM measured after 72 hrs by resazurin dye based fluorescence assay relative to control. The format is functional. Conditions: PC-3, 72 h, read-out: Activity.
Test [5] deals with T1, Androgen receptor (Homo sapiens). Kind of test: Inhibition of AR transcriptional activity in AR-positive human VCaP cells assessed as NKX3.1 protein expression at 5 to 20 uM after 24 hrs by immunoblot analysis. The format is cell-based. A general note: A western blot detects proteins with antibodies after separation by electrophoresis.
The test system of test [6] is LNCaP. Kind of test: Antiproliferative activity against AR-positive human LNCAP cells assessed as cell viability at 40 uM measured after 72 hrs by resazurin dye based fluorescence assay relative to control. The format is functional. To be noted: read-out: Activity.
The subject of test [7] is CWR22R. Briefly: Induction of apoptosis in R1881-activated AR-positive human 22Rv1 cells harboring ARE14 construct assessed as cleaved PARP level at 5 to 20 uM after 24 hrs by immunoblot analysis. The format is functional, cell-based.
In test [8] the target is T1, Androgen receptor (Homo sapiens). Conditions: at 10 µM.
Description: Inhibition of AR transcriptional activity in AR-positive human 22Rv1 cells harboring ARE14 construct assessed as suppression of PSA expression at 10 uM after 24 hrs by immunoblot analysis
Test [9] has the same target. To be noted: at 10 µM. The source holds these as a separate data set.
Description: Inhibition of AR transcriptional activity in AR-positive human 22Rv1 cells harboring ARE14 construct assessed as suppression of NKX3.1 expression at 10 uM after 24 hrs by immunoblot analysis
Test [10] has as its system CWR22R. Briefly: Effect on AR-V7 variant protein expression in AR-positive human 22Rv1 cells harboring ARE14 construct at 10 uM after 24 hrs by immunoblot analysis. The format is functional, cell-based.
Test [11] has as its system LAPC4. Briefly: Antiproliferative activity against AR-positive human LAPC4 cells assessed as growth inhibition measured after 72 hrs by resazurin dye based fluorescence assay. The format is functional. To be noted: LAPC4, 72 h.
In test [12] the target is T1, Androgen receptor (Homo sapiens). Kind of test: Inhibition of AR transcriptional activity in AR-positive human VCaP cells assessed as decrease in PSA protein expression at 20 uM after 48 hrs by immunoblot analysis. The format is cell-based.
For test [13] the target is unchanged. Briefly: Inhibition of AR transcriptional activity in AR-positive human VCaP cells assessed as PSA protein expression at 5 to 20 uM after 24 hrs by immunoblot analysis. The format is cell-based.
For test [14], the system named is VCaP. Kind of test: Induction of apoptosis in AR-positive human VCaP cells assessed as cleaved PARP level at 5 to 20 uM after 24 hrs by immunoblot analysis. In kind it is functional, cell-based.
Test [15] deals with CWR22R. Briefly: Antiproliferative activity against AR-positive human 22Rv1 cells harboring ARE14 construct assessed as cell viability at 40 uM measured after 72 hrs by resazurin dye based fluorescence assay relative to control. The format is functional. To be noted: 22Rv1, 72 h, read-out: Activity.
Test [16] deals with T1, Androgen receptor (Homo sapiens). Kind of test: Inhibition of AR transcriptional activity in AR-positive human VCaP cells assessed as decrease in NKX3.1 protein expression at 20 uM upto 72 hrs by immunoblot analysis. The format is cell-based.
For test [17] the target is unchanged. Kind of test: Inhibition of R1881 induced-AR transcriptional activity in AR-positive human 22Rv1 cells harboring ARE14 construct after 24 hrs by luciferase assay.
The test system of test [18] is VCaP. Kind of test: Antiproliferative activity against AR-positive human VCaP cells assessed as cell viability at 40 uM measured after 72 hrs by resazurin dye based fluorescence assay relative to control. Conditions: read-out: Activity. The format is functional.
The test system of test [19] is LNCaP. Briefly: Antiproliferative activity against AR-positive human LNCAP cells assessed as growth inhibition measured after 72 hrs by resazurin dye based fluorescence assay. The format is functional.
The subject of test [20] is LAPC4. Kind of test: Antiproliferative activity against AR-positive human LAPC4 cells assessed as cell viability at 40 uM measured after 72 hrs by resazurin dye based fluorescence assay relative to control. In kind it is functional. Conditions: LAPC4, 72 h, read-out: Activity.
In test [21] the test system is CWR22R. Kind of test: Antiproliferative activity against human AR-positive 22Rv1 cells harboring ARE14 construct assessed as growth inhibition measured after 72 hrs by resazurin dye based fluorescence assay. The format is functional. Conditions: 22Rv1, 72 h.
The subject of test [22] is VCaP. Briefly: Antiproliferative activity against AR-positive human VCaP cells assessed as growth inhibition measured after 72 hrs by resazurin dye based fluorescence assay. In kind it is functional.
For test [23], the target named is T1, Androgen receptor (Homo sapiens). Conditions: at 10 µM. This is another data set of the same source.
Description: Inhibition of R1881 induced-AR transcriptional activity in AR-positive human 22Rv1 cells harboring ARE14 construct at 10 uM after 24 hrs by luciferase assay

Molecules are shown by their SMILES. Active and inactive are the calls of the source. The rule behind the calls is not given here.

In general, GI50 refers to the concentration giving 50% growth inhibition. Take `COC(=O)c1cnn2c1C[C@]1(C(C)=O)[C@@H](C[C@H]3[C@@H]4CCC5=CC(=O)CC[C@]5(C)[C@H]4CC[C@@]31C)C2`: in [1], the Activity amounted to 40%. Moreover, the inhibition result (with CWR22R [2]; in test [8]; in test [9]; in test [12]; in test [16]) was “Active” each time. Besides, the GI50 in the test on PC-3 [3], in the test with LAPC4 [11], with LNCaP [19], in the test on CWR22R [21] and in the test with VCaP [22] was over 40 µM throughout. In addition, the viability at 40 µM in the test on PC-3 [4] amounted to 98.3%; in the test with LNCaP [6], 77.3%; in the test with CWR22R [15], 80.4%; with VCaP [18] it was 85.1%; in the test with LAPC4 [20] it was 95.1%. The inhibition result in test [5] and in test [13] was “inactive” each time. Moreover, the result in the test on CWR22R [7] and in the test on VCaP [14] was Active. Also, in the test on CWR22R [10], the result was inactive. Further, the inhibition result in test [17] is “Dose-dependent effect”.
On to `C[C@@H](O)[C@@]12Cc3c(CO)c(CO)nn3C[C@@H]1C[C@H]1[C@@H]3CC=C4C[C@@H](O)CC[C@]4(C)[C@H]3CC[C@@]12C`, for which the GI50 with PC-3 [3], in the test on LAPC4 [11], in the test with LNCaP [19], in the test with CWR22R [21] and in the test on VCaP [22] was over 40 µM each time. Further, the viability at 40 µM was over 100% with PC-3 [4]; 92.8% with LNCaP [6]; 95.8% in the test on CWR22R [15]; 96.3% with VCaP [18]; 97.5% with LAPC4 [20]. For the same molecule, the inhibition result in test [8] and in test [23] was “inactive” throughout. For the same molecule, in [9], the inhibition result was “Active”. In addition, the result in the test with CWR22R [10] was inactive.
For the molecule `C[C@@H](O)[C@@]12Cc3c(CO)c(CO)nn3[C@H](Cc3ccccc3)[C@@H]1C[C@H]1[C@@H]3CC=C4C[C@@H](O)CC[C@]4(C)[C@H]3CC[C@@]12C`, the GI50 in the test on PC-3 [3], in the test with LAPC4 [11], in the test on LNCaP [19], in the test with CWR22R [21] and with VCaP [22] was over 40 µM each time. Also, the viability at 40 µM was over 100% in the test with PC-3 [4]; 89.7% in the test on LNCaP [6]; 55.8% in the test with CWR22R [15]; 43% in the test with VCaP [18]; 85.9% in the test with LAPC4 [20]. Besides, the inhibition entry in test [8] is “Active”. For the same molecule, the outcome in the test on CWR22R [10] was inactive. In addition, the inhibition entry in test [23] was “inactive”.
On to `COC(=O)c1nn2c(c1C(=O)OC)C[C@]1(C(C)=O)[C@@H](C[C@H]3[C@@H]4CCC5=CC(=O)CC[C@]5(C)[C@H]4CC[C@@]31C)[C@H]2Cc1ccccc1`, for which the GI50 in the test with PC-3 [3], with LAPC4 [11], with LNCaP [19], with CWR22R [21] and in the test on VCaP [22] was over 40 µM each time. Also, the viability at 40 µM in the test on PC-3 [4] was over 100%; with LNCaP [6], 80.6%; in the test on CWR22R [15], 63.3%; in the test on VCaP [18] it was 80.7%; in the test with LAPC4 [20], 97.2%. Besides, in test [8], the inhibition result was “Active”. In addition, in the test with CWR22R [10], the outcome was inactive. In [23], the inhibition entry is “inactive”.
`COC(=O)c1nn2c(c1C(=O)OC)C[C@]1(C(C)=O)[C@@H](C[C@H]3[C@@H]4CC=C5C[C@@H](O)CC[C@]5(C)[C@H]4CC[C@@]31C)[C@H]2Cc1ccccc1`: the GI50 in the test with PC-3 [3], in the test on LAPC4 [11], in the test with LNCaP [19], with CWR22R [21] and with VCaP [22] was over 40 µM in each case. Moreover, the viability at 40 µM turned out to be 64.7% in the test with PC-3 [4]; 83.5% with LNCaP [6]; 28.4% with CWR22R [15]; 57% in the test with VCaP [18]; 81.3% in the test with LAPC4 [20]. For the same molecule, the inhibition result in test [8], in [9] and in [23] was “inactive” each time. Further, the outcome in the test with CWR22R [10] was inactive.
`C[C@@H](O)[C@@]12Cc3c(CO)cnn3C[C@@H]1C[C@H]1[C@@H]3CC=C4C[C@@H](O)CC[C@]4(C)[C@H]3CC[C@@]12C`: the GI50 with PC-3 [3], in the test on LAPC4 [11], with LNCaP [19], in the test with CWR22R [21] and in the test on VCaP [22] was over 40 µM in each case. Further, the viability at 40 µM was over 100% in the test on PC-3 [4]; 82.8% in the test on LNCaP [6]; 96.3% with CWR22R [15]; 96.7% with VCaP [18]; 92.2% with LAPC4 [20]. The outcome in the test on CWR22R [10] was inactive. Also, the inhibition entry in test [23] is “inactive”.
As for `COC(=O)c1nn2c(c1C(=O)OC)C[C@]1(C(C)=O)[C@@H](C[C@H]3[C@@H]4CC=C5C[C@@H](OC(C)=O)CC[C@]5(C)[C@H]4CC[C@@]31C)[C@H]2Cc1ccccc1`, the GI50 in the test on PC-3 [3], in the test on LAPC4 [11], in the test on LNCaP [19], with CWR22R [21] and in the test with VCaP [22] was over 40 µM each time. Besides, the viability at 40 µM in the test on PC-3 [4] was over 100%; in the test with LNCaP [6], 89.7%; in the test on CWR22R [15], 15%; with VCaP [18], 85.9%; in the test on LAPC4 [20], over 100%. The inhibition entry in test [8], in [9] and in test [23] was “inactive” throughout. Moreover, the outcome with CWR22R [10] was inactive.
